Assays:
[1] = system: LPS-induced TNF-α release; experiment: LPS-induced TNF-α release in human PBMCs; assay type: cell-based; conditions: 100 ng/mL LPS for 4 h
Description: Blood was donated by internal donors at the Center for Occupational Health at Boehringer Ingelheim in Biberach an der Riss, Germany; the donors provided signed informed consent that allows use for scientific purposes. All research was performed in accordance with the principles stated in the Declaration of Helsinki. Ethical approval was provided by the Federal State Medical Association of Baden-Württemberg, reference no. F-2016–121. For preparation of peripheral blood mononuclear cells (PBMCs), 200 mL freshly drawn human blood from healthy donors was mixed with 50 mL acid-citrate-dextrose solution (38 mmol/L citric acid, 75 mmol/L tri-sodium citrate and 121 mmol/L glucose) and 50 mL Hanks buffered saline solution (Thermo Fisher Scientific, Carlsbad, CA, United States), overlaid on Ficoll and centrifuged for 30 min at 300 x g. PBMCs were diluted in RPMI-1640 medium (Thermo Fisher Scientific) containing 6% (v/v) autologous plasma to a concentration of 5 × 10^6 cells/mL. […] Supernatants were taken and cytokines measured by enzyme-linked immunosorbent assay (ELISA; Becton Dickinson, Franklin Lakes, NJ, United States).

[2] = system: LPS-induced neutrophil influx into the BALF; experiment: LPS-induced neutrophil influx into the BALF of Suncus murinus; assay type: in vivo
Excerpt: Compared with other animal species used to study emesis induction by PDE4 inhibitors, like ferrets, dogs, minipigs, or monkeys, Suncus murinus allows the testing of a sufficient number of animals to provide a high statistical power. […] Male Suncus murinus (weight 50–55 g) from Boehringer Ingelheim (Biberach an der Riss, Germany) or male Wistar rats (200–250 g, Charles River), eight animals per group, were used. […] For this purpose, animals in the positive control and treatment groups were put into a circular Plexiglas chamber with 16 pie-like compartments for one animal each, and were consecutively exposed to nebulized LPS for 30 min. The LPS solution used for nebulization contained 1 mg/mL LPS in phosphate-buffered saline (PBS). Nebulization was performed with the commercially available PARI Master® nebulizer with a PARI Master® LL adapter (Pari GmbH, Starnberg, Germany). 4 h after LPS exposure, the animals were anesthetized and euthanized by cervical dislocation. After sacrifice, the trachea was cannulated and bronchoalveolar lavage was performed by instilling and re-aspirating two-times 1 mL (Suncus murinus) or 5 mL (rat) lavage buffer (PBS +2% bovine serum albumin). BALF volumes were recorded manually. Determination of neutrophil numbers in BALF was performed using a blood hemacytometer (Sysmex XT-1800i, Kobe, Japan).

[3] = system: Col3A1 mRNA expression; experiment: TGF-β-induced Col3A1 mRNA expression in IPF lung fibroblasts (Taqman); assay type: cell-based, human
Description: Fibroblasts from donors with IPF (IPF-LF) (Asterand, Detroit, MI, United States) were grown in fibroblast basal medium (CC-3131, Lonza Walkersville, Inc., Walkersville, MD, United States) supplemented with FGM-2 SingleQuot Kit Supplements and Growth Factors (CC-4126, Lonza). Cells were grown in a humidified incubator at 37°C and 5% CO2. All assays were performed at passage 7 or 8. For assay set-up, cells were seeded in fibroblast growth medium plus supplements in assay-relevant densities. For TGF-β-stimulated assays, cells were seeded at 4,500 cells per well in 96-well plates. Proliferation assays were performed in 96-well plates at an initial seeding cell density on day 0 of 2,000 cells per well. After 24-h, the cell culture medium was changed to starvation medium (fibroblast basal medium without supplements). […]
For determination of Col1A1, Col3A1, and FN mRNA expression, IPF-LF cells were stimulated with TGF-β (4 ng/mL) for 48 h. […] Quantitative real-time polymerase chain reactions were set up using the TaqMan™ Fast Advanced Master Mix (Applied Biosystems, Carlsbad, CA, United States) and species-specific gene expression assays: Col1A1 #Hs00164004_m1 FAM, Col3A1 #Hs0094309_m1 FAM, FN #Hs01549976_m1 FAM, 18S #4310893E. […] Fold-change of gene expression was calculated by the Viia7 software (regulation based upon housekeeper).

[4] = system: IPF-LF cells; experiment: bFGF plus IL-1β-induced proliferation of IPF lung fibroblasts (bromodeoxyuridine assay); assay type: cell-based
Description: Fibroblasts from donors with IPF (IPF-LF) (Asterand, Detroit, MI, United States) were grown in fibroblast basal medium (CC-3131, Lonza Walkersville, Inc., Walkersville, MD, United States) supplemented with FGM-2 SingleQuot Kit Supplements and Growth Factors (CC-4126, Lonza). Cells were grown in a humidified incubator at 37°C and 5% CO2. All assays were performed at passage 7 or 8. For assay set-up, cells were seeded in fibroblast growth medium plus supplements in assay-relevant densities. For TGF-β-stimulated assays, cells were seeded at 4,500 cells per well in 96-well plates. Proliferation assays were performed in 96-well plates at an initial seeding cell density on day 0 of 2,000 cells per well. After 24-h, the cell culture medium was changed to starvation medium (fibroblast basal medium without supplements). After a 24-h starvation period, cells were pre-incubated for 30 min with different concentrations of BI 1015550 plus/minus different concentrations of nintedanib and/or 1 nmol/L PGE2 and stimulated with the assay-relevant stimulus for the indicated time in the presence of the compound.
IPF-LF cells were stimulated with bFGF (20 ng/mL) plus IL-1β (30 pg/mL). After 72 h of stimulation, 10-times concentrated bromodeoxyuridine was added and the cells were incubated for another 18 h (final concentration bromodeoxyuridine 10 μmol/L). Cell proliferation was assessed by bromodeoxyuridine assay (Roche, Mannheim, Germany) according to the instruction manual.

[5] = Plasma protein binding; assay type: in vitro ADME
[6] = Off-target screening, Cerep high-throughput profile and non-kinase enzyme profile

- IC50 [1]: 35 nM
- Plasma protein binding [5]: 77%
- Off-target effects [6]: not shown any other off-target effects
SMILES: [O-][S+]1CCc2nc(N3CCC(c4ncc(Cl)cn4)CC3)nc(NC3(CO)CCC3)c21 (centres unmarked) [BI 1015550]
- Neutrophils in BALF, inhibition in % given as negative number ([2]; 0.1 mg/kg p.o.): −23%
- Neutrophils in BALF, inhibition in % given as negative number ([2]; 0.3 mg/kg p.o.): −36%
- Neutrophils in BALF, inhibition in % given as negative number ([2]; 1.0 mg/kg p.o.): −59%
- ED50 LPS-induced BALF neutrophils ([2]; oral, 30 min before nebulized LPS): 0.6 mg/kg
- IC50 ([3]; IPF-LF, TGF-β 4 ng/mL, 48 h, read-out: IC50 TGF-β-induced Col3 mRNA expression): 213 nM
- Combination effect in inhibiting Col3 mRNA expression ([3]; combination with nintedanib at 100 nmol/L): additive effects
- IC50 ([4]; IPF-LF, alone, read-out: IC50 bFGF plus IL-1β-induced cell proliferation): 255 nM
- Additional inhibitory effects in combination, proliferation assay ([4]; combination with pirfenidone (100 µmol/L), data not shown): did not yield any additional inhibitory effects

Source: paper PMC9065678, “BI 1015550 is a PDE4B Inhibitor and a Clinical Drug Candidate for the Oral Treatment of Idiopathic Pulmonary Fibrosis” (Frontiers in Pharmacology, 2022)
